Legend:
HLA-B*57:01 [1] = target: T1, HLA-B*57:01 (Homo sapiens, UniProt P01889, D201E/D98Y/E176V/E187L/E204Q/E69M/E70A/G107R/I90N/K202T/L105A/L119I/N104I/N87E/Q89R/Q94S/R106L/R155S/R180L/R86G/S101N/S121V/S35A/S48A/T118I/V36M/Y140S/Y91M); assay: LC-MRM-MS quantitation of HLA ligands and co-purified abacavir from abacavir treated C1R.B*57:01 cells; format: cell-based; conditions: for Category of abacavir impact on peptide abundance in the immunopeptidome: C1R.B*57:01, 35 µM abacavir 0-16 h or constant, linear regression of normalised abundance, three replicates; for Abacavir dependence: LC-MRM-MS detection, classification of the peptide based on abacavir dependency; for Linear regression slope: linear regression of LC-MRM-MS peptide abundance over abacavir treatment time
HLA-B*57:01 [2] = target: T1, HLA-B*57:01; set-up: method as in Illing et al., Nature 2012; conditions: ref Illing et al., Nature 2012, cited from earlier work; for HLA-B*57:01 previous observation by LC-MS/MS, Abacavir treated: abacavir treated cells; for HLA-B*57:01 previous observation by LC-MS/MS, Untreated: untreated cells

| Sequence | Category of abacavir impact on peptide abundance in the immunopeptidome (HLA-B*57:01 [1]) | Abacavir dependence (HLA-B*57:01 [1]) | Linear regression slope (HLA-B*57:01 [1]) | HLA-B*57:01 previous observation by LC-MS/MS, Abacavir treated (HLA-B*57:01 [2]) | HLA-B*57:01 previous observation by LC-MS/MS, Untreated (HLA-B*57:01 [2]) |
| --- | --- | --- | --- | --- | --- |
| ATFKGIVRAI [non-labelled HLA-B*57:01 ligand] | Dependent | Dependent | 0.0504 | + (+ (< 5% FDR)) | – |
| ASAGNLKPVW | – | Minimal | 0.0136 | + (+ (< 5% FDR)) | + (+ (< 5% FDR)) |
| KSIARVLTV | – | Dependent | 0.0347 | # (# (> 5% FDR)) | – |
| KTIETSPSL [HLA-B*57:01 ligand] | abacavir facilitated (abacavir facilitated (slope > 0.02, abundance > 0 at t = 0 in at least two of three replicates)) | – | – | # (# (> 5% FDR)) | – |
| HSTDRVVLI | – | Dependent | 0.0350 | # (# (> 5% FDR)) | – |
| KVVDVVRNL [HLA-B*57:01 ligand derived from MX1] | abacavir inhibited (abacavir inhibited (slope < −0.02)) | Inhibited | -0.0432 | # (# (> 5% FDR)) | + (+ (< 5% FDR)) |
| SAAYLPRMW | – | Minimal | -0.0194 | + (+ (< 5% FDR)) | + (+ (< 5% FDR)) |
| VTYPAKAKGTFI | – | Dependent | 0.0340 | + (+ (< 5% FDR)) | – |
| NTVELRVKI [non-labelled HLA-B*57:01 ligand] | Dependent | Dependent | 0.0281 | + (+ (< 5% FDR)) | – |
| ITAGAHRLW | – | Minimal | 0.0136 | + (+ (< 5% FDR)) | + (+ (< 5% FDR)) |
| LTSELITHI [HLA-B*57:01 ligand derived from MX1] | abacavir dependent (abacavir dependent (slope > 0.02, abundance = 0 at t = 0 in at least two of three replicates)) | Dependent | 0.0325 | + (+ (< 5% FDR)) | – |
| TSLKSRVTI [non-labelled HLA-B*57:01 ligand] | Facilitated | Facilitated | 0.0267 | # (# (> 5% FDR)) | + (+ (< 5% FDR)) |
| KAIDYIRFL | – | Inhibited | -0.0293 | + (+ (< 5% FDR)) | # (# (> 5% FDR)) |
| KSYELPDGQVI | – | Facilitated | 0.0297 | + (+ (< 5% FDR)) | # (# (> 5% FDR)) |
| SSAEVKVTI | – | Dependent | 0.0466 | + (+ (< 5% FDR)) | – |
| RVLPPSHRVTW | – | Minimal | 0.0197 | + (+ (< 5% FDR)) | + (+ (< 5% FDR)) |
| STIRLLTSL | – | Facilitated | 0.0278 | + (+ (< 5% FDR)) | + (+ (< 5% FDR)) |
| VTTDIQVKV | – | Dependent | 0.0428 | + (+ (< 5% FDR)) | + (+ (< 5% FDR)) |
| KTFIGTVRV | – | Dependent | 0.0503 | + (+ (< 5% FDR)) | – |
| VTHSVRIGF | – | Inhibited | -0.0410 | + (+ (< 5% FDR)) | + (+ (< 5% FDR)) |
| HTIQIRQDW [HLA-B*57:01 ligand] | Facilitated | Facilitated | 0.0256 | + (+ (< 5% FDR)) | + (+ (< 5% FDR)) |

| Sequence | Category of abacavir impact on peptide abundance in the immunopeptidome (HLA-B*57:01 [1]) | Abacavir dependence (HLA-B*57:01 [1]) | Linear regression slope (HLA-B*57:01 [1]) | HLA-B*57:01 previous observation by LC-MS/MS, Abacavir treated (HLA-B*57:01 [2]) | HLA-B*57:01 previous observation by LC-MS/MS, Untreated (HLA-B*57:01 [2]) |
| --- | --- | --- | --- | --- | --- |
| RVDPAKGLFYF [non-labelled HLA-B*57:01 ligand] | Inhibited | Inhibited | -0.0245 | + (+ (< 5% FDR)) | + (+ (< 5% FDR)) |
| ASSSQIIHI | – | Dependent | 0.0446 | + (+ (< 5% FDR)) | – |
| YFDPANGKF | – | – | 0.0159 | + (+ (< 5% FDR)) | + (+ (< 5% FDR)) |
| RVDPDVAQHW | – | Minimal | 0.0110 | + (+ (< 5% FDR)) | + (+ (< 5% FDR)) |
| LSKPNPPSL [HLA-B*57:01 ligand] | Minimal | Minimal | -0.0172 | + (+ (< 5% FDR)) | + (+ (< 5% FDR)) |
| TALPLLKQF | – | Inhibited | -0.0283 | + (+ (< 5% FDR)) | + (+ (< 5% FDR)) |
| KTAGYPNVNI | – | Dependent | 0.0509 | + (+ (< 5% FDR)) | # (# (> 5% FDR)) |
| TFDDIVHSF | – | – | 0.0142 | + (+ (< 5% FDR)) | + (+ (< 5% FDR)) |
| FSHRIYVAY | – | Minimal | 0.0098 | + (+ (< 5% FDR)) | + (+ (< 5% FDR)) |
| LTTKLTNTNI [non-labelled HLA-B*57:01 ligand] | Dependent | Dependent | 0.0544 | + (+ (< 5% FDR)) | – |
| RVAQLEQVYI | – | Dependent | 0.0208 | + (+ (< 5% FDR)) | – |
| TSQAGLFRLW | – | Minimal | 0.0067 | + (+ (< 5% FDR)) | + (+ (< 5% FDR)) |
| ASAIIIQRW | – | Minimal | 0.0134 | + (+ (< 5% FDR)) | + (+ (< 5% FDR)) |
| FVKKLEHSW | – | Minimal | 0.0023 | + (+ (< 5% FDR)) | + (+ (< 5% FDR)) |
| GTYQDVGSLNI | – | Dependent | 0.0429 | + (+ (< 5% FDR)) | – |
| LSSPVTKSF | minimally impacted by abacavir | Minimal | 0.0147 | + (+ (< 5% FDR)) | + (+ (< 5% FDR)) |
| TTWKPLNPNSW | – | Minimal | 0.0009 | + (+ (< 5% FDR)) | + (+ (< 5% FDR)) |
| KVFKLQTSL [non-labelled HLA-B*57:01 ligand] | Dependent | Dependent | 0.0380 | # (# (> 5% FDR)) | – |
| STLHLVLRL | – | Dependent | 0.0280 | + (+ (< 5% FDR)) | + (+ (< 5% FDR)) |
| YTDNLVRVW [HLA-B*57:01 ligand derived from RACK1] | minimally impacted by abacavir | Minimal | -0.0088 | + (+ (< 5% FDR)) | + (+ (< 5% FDR)) |
| IVFPGSTGHI | – | Dependent | 0.0377 | + (+ (< 5% FDR)) | – |
